Reference: ChEMBL document CHEMBL3044820, “Evaluation of Benzenesulfonanilide Derivatives for the Control of Crucifers Clubroot” (1996)

Legend:
Format in all cases: functional
[1] = system: Plasmodiophora brassicae; test: Fungicidal activity against clubroot disease causing Plasmodiophora brassicae infested Brassica campestris under greenhouse condition assessed as disease incidence at 2 kg a.i/ha treated to soil measured after 40 to 50 days
[2] = system: Plasmodiophora brassicae; test: Fungicidal activity against clubroot disease causing Plasmodiophora brassicae infested Brassica campestris under greenhouse condition assessed as disease incidence at 4 kg a.i/ha treated to soil measured after 40 to 50 days
[3] = system: Plasmodiophora brassicae; test: Fungicidal activity against clubroot disease causing Plasmodiophora brassicae infested Brassica campestris under greenhouse condition assessed as disease incidence at 0.5 kg a.i/ha treated to soil measured after 40 to 50 days

| SMILES | Activity [1] [%] | Activity [2] [%] | Activity [3] [%] |
| --- | --- | --- | --- |
| Cc1ccc(S(=O)(=O)Nc2ccc(C(F)(F)F)cc2)cc1 | 26 | 26 | 0 |
| Cc1ccc(S(=O)(=O)Nc2ccc([N+](=O)[O-])cc2Cl)cc1 | >91 | >91 | 26 |
| Cc1cc([N+](=O)[O-])ccc1NS(=O)(=O)c1cc(C(F)(F)F)ccc1Cl | >91 | >91 | 0 |
| Cc1cc([N+](=O)[O-])ccc1NS(=O)(=O)c1ccc(Cl)c(Cl)c1 | >91 | >91 | 0 |
| Cc1cc([N+](=O)[O-])ccc1NS(=O)(=O)c1ccc(Cl)c(C(F)(F)F)c1 | >91 | >91 | 26 |
| O=[N+]([O-])c1ccc(NS(=O)(=O)c2cccc(C(F)(F)F)c2)c(F)c1 | >91 | >91 | >91 |
| O=[N+]([O-])c1ccc(NS(=O)(=O)c2cc(Cl)c(Cl)cc2Cl)c(F)c1 | >91 | >91 | 71 |
| O=[N+]([O-])c1ccc(NS(=O)(=O)c2cccc(C(F)(F)F)c2)c(Cl)c1 | >91 | >91 | >91 |
| Cc1ccc([N+](=O)[O-])cc1S(=O)(=O)Nc1ccc([N+](=O)[O-])cc1Cl | >91 | >91 | 0 |
| Cc1ccc(C)c(S(=O)(=O)Nc2ccc([N+](=O)[O-])cc2Cl)c1 | >91 | >91 | 0 |
| Cc1ccc(S(=O)(=O)Nc2ccc([N+](=O)[O-])cc2Cl)c(C)c1 | >91 | >91 | 0 |
| O=[N+]([O-])c1ccc(NS(=O)(=O)c2cc(C(F)(F)F)ccc2Cl)c(Cl)c1 | >91 | >91 | 51 |
| O=[N+]([O-])c1ccc(NS(=O)(=O)c2cc(Cl)ccc2Cl)c(Cl)c1 | >91 | >91 | 26 |
| Cc1ccc(S(=O)(=O)Nc2ccc([N+](=O)[O-])cc2Cl)cc1[N+](=O)[O-] | >91 | >91 | 26 |
| O=[N+]([O-])c1ccc(NS(=O)(=O)c2cc(Cl)c(Cl)cc2Cl)c(Cl)c1 | >91 | >91 | 51 |
| Cc1ccc([N+](=O)[O-])cc1S(=O)(=O)Nc1c(Cl)cc([N+](=O)[O-])cc1Cl | >91 | >91 | 26 |
| Cc1cc([N+](=O)[O-])ccc1NS(=O)(=O)c1cccc(C(F)(F)F)c1 | >91 | >91 | 0 |
| Cc1cc([N+](=O)[O-])ccc1NS(=O)(=O)c1cc(Cl)ccc1Cl | >91 | >91 | 51 |
| O=[N+]([O-])c1ccc(NS(=O)(=O)c2ccc(Cl)c(C(F)(F)F)c2)c(Cl)c1 [FLUSULFAMIDE] | >91 | >91 | >91 |
